# Target: T1, Urokinase-type plasminogen activator [179-424,C299A,N323Q] (Human, UniProt P00749, C299A/N323Q)
# T1 construct: 179-424
# Assay: Photometric_Method1
row,SMILES,Ki [nM]
1,COc1cc2ccc(C(=N)N)cc2c(OC)c1OC [uPa_2],8030
2,N=C(N)c1ccc2cc(NS(=O)(=O)c3ccccc3)ccc2c1 [uPa_14],8700
3,N=C(N)c1ccc2cc(C#Cc3cccc(OC4CCCC4)c3)ccc2c1 [uPa_25],665
4,COc1ccc2ccc(C(=N)N)cc2c1-c1cnn(C(C)C)c1 [uPa_11],4500
5,N=C(N)c1ccc2cc(C(=O)Nc3ccccc3)cc(-c3ncccn3)c2c1 [uPa_21],7850
6,N=C(N)c1ccc2ccccc2c1 [Naphthalene-2-carboxamidine],5910
7,COC(=O)Nc1ccc2nc(N)ccc2c1 [uPa_24],> 50000
8,Nc1ccc2nc(N)ccc2c1 [uPa_23],> 104000
9,N=C(N)NC(=O)c1nc(Cl)c(NCc2cc(Cl)cc(Cl)c2)nc1N [uPa_22],3570
10,Nc1cc2ccccc2cn1,> 30000
11,CC(C)Oc1ccc2cc(C(=N)N)ccc2c1 [uPa_5],7280
12,CS(=O)(=O)n1cc(-c2cc(C(=O)Nc3ccccc3)cc3ccc(C(=N)N)cc23)cn1 [uPa_20],769
13,CC(C)C1=NCCc2ccc(NC(=O)c3cc(Br)c4cc(C(=N)N)ccc4c3)cc21 [uPa_26],15.7
14,COC(=O)Nc1cc(C(=O)Nc2ccc(CN)cc2)cc2ccc(C(=N)N)cc12 [uPa_17],0.892
15,Nc1cnc2ccccc2n1 [uPa_1],> 50000
16,N#CC(CCOc1cccc2ccc(N)nc12)(c1ccccc1)c1ccccc1 [uPa_16],> 40000

# Other lines, results leading:
row,Ki [nM],SMILES
1,> 100000,CC(C)CN(CC(C)C)C(=O)c1ccc2ccc(N)nc2c1 [uPa_34]
2,> 100000,N=C(N)NC(=O)c1ccc(Cl)c(S(N)(=O)=O)c1 [uPa_45]
3,94,COc1cc(C2CC2c2ccc3c(c2)C(C(C)C)N(C)CC3)cc2ccc(C(=N)N)cc12 (stereo not given) [uPa_42]
4,42,CN1CCc2ccc(C3CC3c3ccc4cc(C(=N)N)ccc4c3)cc2C1C1CCC1 (stereo not given) [uPa_41]
5,290,N=C(N)c1ccc2cc(C(=O)Nc3ccc4c(c3)C(c3ccccc3)=NCC4)ccc2c1 [uPa_29]
6,223,CN1CCc2ccc(/C=C/c3ccc4cc(C(=N)N)ccc4c3)cc2C1C1CCCCC1 (stereo not given) [uPa_40]
7,> 100000,C#CCN(C)C(=O)c1ccc2ccc(N)nc2c1 [uPa_33]
8,> 50000,COC(=O)Nc1ccc2nc(C(=N)N)ccc2c1 [uPa_27]
9,18,COC(=O)Nc1cc(C(=O)Nc2ccccc2)cc2ccc(C(=N)N)cc12 [uPa_36]
10,21,COC/C=C/c1cc(C2CC2c2ccc3c(c2)C(C(C)C)N(C)CC3)cc2ccc(C(=N)N)cc12 (stereo not given) [uPa_39]
11,777,CCOc1cc(OCC)c(OCC)cc1/C=C/c1cc(Br)c2cc(C(=N)N)ccc2c1 [uPa_38]
12,> 10000,C=CCNC(=O)Nc1cccc2ccc(N)nc12 [uPa_30]
13,1490,CS(=O)(=O)Nc1cc(CCc2ccccc2)cc2ccc(C(=N)N)cc12 [uPa_37]
14,66.3,N=C(N)c1ccc2cc(C(=O)Nc3ccc4c(c3)C(C3CCCCC3)=NCC4)ccc2c1 [uPa_31]
15,33.3,COc1cc(NC(=O)c2ccc3cc(C(=N)N)ccc3c2)cc(OC(C)C)c1 [uPa_28]
16,> 100000,CN(CC#N)C(=O)c1ccc2ccc(N)nc2c1 [uPa_35]
17,9,CC(C)C1c2cc(C3CC3c3cc(/C=C/C4CC4)c4cc(C(=N)N)ccc4c3)ccc2CCN1C (stereo not given) [uPa_43]
18,1250,CN1CCc2ccc(C3CC3c3ccc4cc(C(=N)N)ccc4c3)cc2C1c1cccnc1 (stereo not given) [uPa_44]
19,3080,N=C(N)c1ccc2cc(/C=C/CCc3cccnc3)cc(Br)c2c1 [uPa_32]

# — BindingDB's records for doi:10.7270/Q24B305P (D3R/Abbott, 2015)
